Values belong to the compound of their own block, whether it stands above or below them.
How the values were obtained:
Experiment in all cases: Competitive isoTOP-ABPP in situ (fragment-treated cells)
Type in all cases: cell-based
[1] = target: cysteines in MDA-MB-231 and Ramos cells (Homo sapiens, UniProt Q8NDH3)
[2] = target: cysteines in MDA-MB-231 and Ramos cells (Homo sapiens, UniProt Q9BRJ7)
[3] = target: cysteines in MDA-MB-231 and Ramos cells (Homo sapiens, UniProt Q14790)
[4] = target: T1, cysteines in MDA-MB-231 and Ramos cells (Homo sapiens, UniProt Q96F86)
T1 sequence (Q96F86 1-508): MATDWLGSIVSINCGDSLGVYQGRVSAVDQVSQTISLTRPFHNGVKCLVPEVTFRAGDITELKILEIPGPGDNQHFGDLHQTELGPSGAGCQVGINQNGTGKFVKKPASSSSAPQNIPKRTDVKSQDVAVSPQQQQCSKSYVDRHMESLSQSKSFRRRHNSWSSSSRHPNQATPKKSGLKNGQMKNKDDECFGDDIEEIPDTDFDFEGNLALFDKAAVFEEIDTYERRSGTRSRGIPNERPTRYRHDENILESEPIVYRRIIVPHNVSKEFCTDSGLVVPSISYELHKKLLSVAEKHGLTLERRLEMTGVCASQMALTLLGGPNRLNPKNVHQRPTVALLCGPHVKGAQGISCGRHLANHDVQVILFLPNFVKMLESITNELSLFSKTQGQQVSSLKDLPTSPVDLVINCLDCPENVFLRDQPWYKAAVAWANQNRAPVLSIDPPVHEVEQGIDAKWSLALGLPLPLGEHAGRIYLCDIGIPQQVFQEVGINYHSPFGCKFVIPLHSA

[5] = target: T2, cysteines in MDA-MB-231 and Ramos cells (Homo sapiens, UniProt Q9Y679)
T2 sequence (Q9Y679 1-410): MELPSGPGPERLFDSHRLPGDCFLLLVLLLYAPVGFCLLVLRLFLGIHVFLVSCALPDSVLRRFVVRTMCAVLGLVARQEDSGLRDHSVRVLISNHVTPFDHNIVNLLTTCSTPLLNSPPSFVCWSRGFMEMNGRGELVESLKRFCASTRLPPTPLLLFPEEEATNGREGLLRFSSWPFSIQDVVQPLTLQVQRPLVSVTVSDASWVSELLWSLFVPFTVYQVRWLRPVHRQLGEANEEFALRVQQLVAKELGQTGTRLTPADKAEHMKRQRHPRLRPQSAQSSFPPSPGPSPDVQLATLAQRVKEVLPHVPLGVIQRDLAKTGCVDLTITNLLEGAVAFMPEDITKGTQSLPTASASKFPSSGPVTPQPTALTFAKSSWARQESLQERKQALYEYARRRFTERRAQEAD

[6] = target: cysteines in MDA-MB-231 and Ramos cells (Homo sapiens, UniProt P27707)
cysteines in MDA-MB-231 and Ramos cells (Homo sapiens, UniProt P27707), sequence (P27707 whole entry): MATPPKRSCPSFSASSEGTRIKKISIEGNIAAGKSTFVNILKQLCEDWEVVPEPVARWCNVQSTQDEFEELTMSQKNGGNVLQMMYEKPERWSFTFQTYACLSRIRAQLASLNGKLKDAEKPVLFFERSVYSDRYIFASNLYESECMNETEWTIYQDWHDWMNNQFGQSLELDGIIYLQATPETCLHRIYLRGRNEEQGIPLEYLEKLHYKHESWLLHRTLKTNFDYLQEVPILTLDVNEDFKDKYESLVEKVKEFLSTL

[7] = target: T3, cysteines in MDA-MB-231 and Ramos cells (Homo sapiens, UniProt Q8N1F7); settings: 200 μM, insitu
T3 sequence (Q8N1F7 1-819): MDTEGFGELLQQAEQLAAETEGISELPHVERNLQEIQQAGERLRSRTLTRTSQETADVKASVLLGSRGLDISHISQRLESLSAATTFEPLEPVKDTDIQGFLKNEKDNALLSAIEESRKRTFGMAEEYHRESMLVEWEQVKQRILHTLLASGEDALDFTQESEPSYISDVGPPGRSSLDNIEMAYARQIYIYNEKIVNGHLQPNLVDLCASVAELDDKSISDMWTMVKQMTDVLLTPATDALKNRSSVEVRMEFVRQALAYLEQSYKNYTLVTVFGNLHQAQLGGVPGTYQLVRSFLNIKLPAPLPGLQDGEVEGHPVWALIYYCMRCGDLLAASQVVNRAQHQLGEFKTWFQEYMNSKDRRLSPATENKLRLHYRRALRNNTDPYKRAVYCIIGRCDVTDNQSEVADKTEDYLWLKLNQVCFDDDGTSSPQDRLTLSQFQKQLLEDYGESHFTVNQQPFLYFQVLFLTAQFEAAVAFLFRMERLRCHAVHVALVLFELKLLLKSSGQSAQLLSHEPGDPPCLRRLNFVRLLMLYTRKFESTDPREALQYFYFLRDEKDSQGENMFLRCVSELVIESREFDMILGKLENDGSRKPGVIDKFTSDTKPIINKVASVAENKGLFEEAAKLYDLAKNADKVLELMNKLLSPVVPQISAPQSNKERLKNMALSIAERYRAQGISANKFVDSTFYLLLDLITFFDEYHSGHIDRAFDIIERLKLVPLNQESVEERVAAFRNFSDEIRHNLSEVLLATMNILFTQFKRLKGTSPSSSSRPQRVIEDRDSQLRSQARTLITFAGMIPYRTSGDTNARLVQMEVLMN

[8] = target: T4, cysteines in MDA-MB-231 and Ramos cells (Homo sapiens, UniProt O14929)
T4 sequence (O14929 1-419): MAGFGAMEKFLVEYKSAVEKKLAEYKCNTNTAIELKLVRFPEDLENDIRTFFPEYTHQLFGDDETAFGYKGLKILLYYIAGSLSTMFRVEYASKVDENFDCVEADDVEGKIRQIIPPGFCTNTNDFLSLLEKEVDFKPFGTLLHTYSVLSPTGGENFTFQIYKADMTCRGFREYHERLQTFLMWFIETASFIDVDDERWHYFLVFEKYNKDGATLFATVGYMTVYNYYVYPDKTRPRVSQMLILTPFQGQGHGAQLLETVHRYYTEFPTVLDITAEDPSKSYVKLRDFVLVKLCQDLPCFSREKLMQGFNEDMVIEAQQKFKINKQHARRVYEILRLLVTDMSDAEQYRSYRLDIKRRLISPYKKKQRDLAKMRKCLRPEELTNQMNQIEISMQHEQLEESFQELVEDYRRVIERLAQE

cysteines in MDA-MB-231 and Ramos cells (Homo sapiens, UniProt Q14790), sequence (Q14790 217-479): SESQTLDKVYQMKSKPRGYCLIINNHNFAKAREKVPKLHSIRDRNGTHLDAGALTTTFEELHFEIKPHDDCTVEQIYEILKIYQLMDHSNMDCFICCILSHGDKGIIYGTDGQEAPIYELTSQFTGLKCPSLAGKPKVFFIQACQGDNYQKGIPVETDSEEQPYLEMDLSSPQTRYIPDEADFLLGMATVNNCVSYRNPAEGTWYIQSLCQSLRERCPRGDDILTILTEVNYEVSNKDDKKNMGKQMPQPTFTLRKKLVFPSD
cysteines in MDA-MB-231 and Ramos cells (Homo sapiens, UniProt Q9BRJ7), sequence (Q9BRJ7 whole entry): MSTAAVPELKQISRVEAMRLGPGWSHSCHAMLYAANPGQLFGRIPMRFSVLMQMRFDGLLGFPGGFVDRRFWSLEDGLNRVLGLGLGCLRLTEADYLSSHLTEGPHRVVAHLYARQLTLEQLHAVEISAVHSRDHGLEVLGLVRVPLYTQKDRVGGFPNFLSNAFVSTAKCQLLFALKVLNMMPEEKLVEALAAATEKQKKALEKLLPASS
cysteines in MDA-MB-231 and Ramos cells (Homo sapiens, UniProt Q8NDH3), sequence (Q8NDH3 whole entry): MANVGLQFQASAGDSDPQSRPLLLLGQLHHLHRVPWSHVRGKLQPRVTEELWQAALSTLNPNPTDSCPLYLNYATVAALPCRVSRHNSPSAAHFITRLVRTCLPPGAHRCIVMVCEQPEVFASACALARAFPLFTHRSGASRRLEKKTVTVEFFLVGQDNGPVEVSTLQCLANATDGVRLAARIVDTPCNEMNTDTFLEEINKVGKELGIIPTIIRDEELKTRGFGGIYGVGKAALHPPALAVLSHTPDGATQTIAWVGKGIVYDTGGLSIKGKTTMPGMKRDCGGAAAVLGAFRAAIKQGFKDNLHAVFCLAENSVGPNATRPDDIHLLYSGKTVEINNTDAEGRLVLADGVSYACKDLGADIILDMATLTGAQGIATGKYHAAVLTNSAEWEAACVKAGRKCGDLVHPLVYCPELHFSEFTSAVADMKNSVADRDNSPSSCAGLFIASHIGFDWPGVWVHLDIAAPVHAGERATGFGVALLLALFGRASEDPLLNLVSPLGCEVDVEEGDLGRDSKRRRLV

isoTOP-ABPP reactivity Q8NDH3_C81 NPEPL1 ([1]; 200 μM, insitu, 231): 20.0
isoTOP-ABPP reactivity Q9BRJ7_C88 NUDT16L1 ([2]; 200 μM, insitu, 231): 20.0
isoTOP-ABPP reactivity Q14790_C360 CASP8 ([3]; 200 μM, insitu, 231): 20.0
isoTOP-ABPP reactivity Q96F86_C413 EDC3 ([4]; 200 μM, insitu, 231): 20.0
Compound: COc1ccc2c(c1)CCCN2C(=O)CCl [compound 2]

isoTOP-ABPP reactivity P27707_C9 DCK ([6]; 200 μM, insitu, 231): 4.9
isoTOP-ABPP reactivity O14929_C101 HAT1 ([8]; 200 μM, insitu, 231): 9.0
Compound: O=C(CCl)N1CCC(Cc2ccccc2)CC1 [compound 9]

isoTOP-ABPP ratio, cysteine Q8NDH3_C81 ([1]; 200 μM, insitu, 231): 5.7
isoTOP-ABPP ratio, cysteine Q9BRJ7_C88 ([2]; 200 μM, insitu, 231): 20.0
isoTOP-ABPP ratio Q14790_C360 ([3]; 200 μM, insitu, ramos): 5.8
isoTOP-ABPP ratio P27707_C9 ([6]; 200 μM, insitu, 231): 1.9
isoTOP-ABPP ratio P27707_C9 ([6]; 200 μM, insitu, ramos): 1.7
isoTOP-ABPP ratio Q96F86_C413 ([4]; 200 μM, insitu, 231): 20.0
isoTOP-ABPP ratio Q96F86_C413 ([4]; 200 μM, insitu, ramos): 20.0
isoTOP-ABPP ratio O14929_C101 ([8]; 200 μM, insitu, 231): 20.0
Compound: O=C(CCl)N1CCN(S(=O)(=O)c2ccccc2F)CC1 [compound 10]

Second part, the compound before the results:

Compound: COc1ccc(C2CC(c3cccs3)=NN2C(=O)CCl)cc1 (stereo not drawn) [compound 4]
isoTOP-ABPP reactivity Q8NDH3_C81 NPEPL1 ([1]; 100 μM in situ 231): 20.0
isoTOP-ABPP reactivity Q9BRJ7_C88 NUDT16L1 ([2]; 100 μM in situ 231): 20.0
isoTOP-ABPP reactivity Q14790_C360 CASP8 ([3]; 100 μM in situ 231): 20.0
isoTOP-ABPP reactivity Q9Y679_C391 AUP1 ([5]; 100 μM in situ 231): 20.0
isoTOP-ABPP reactivity P27707_C9 DCK ([6]; 100 μM in situ 231): 1.4
isoTOP-ABPP reactivity Q96F86_C413 EDC3 ([4]; 100 μM in situ 231): 20.0

Compound: COc1cc2c(cc1OC)CN(C(=O)CCl)CC2 [compound 8]
isoTOP-ABPP reactivity Q8NDH3_C81 NPEPL1 ([1]; 200 μM, insitu, 231): 20.0
isoTOP-ABPP reactivity Q8N1F7_0522 NUP93 [7]; 231: 20.0
isoTOP-ABPP reactivity Q9Y679_C391 AUP1 ([5]; 200 μM, insitu, 231): 20.0

Compound: Cn1cc(S(=O)(=O)N2CCOCC2)cc1C(=O)NC(=O)CCl [compound 11]
isoTOP-ABPP ratio, cysteine Q9Y679_C391 ([5]; 100 μM in situ 231): 3.0
isoTOP-ABPP ratio P27707_C9 ([6]; 100 μM in situ 231): 0.5
isoTOP-ABPP ratio Q96F86_C413 ([4]; 100 μM in situ 231): 20.0
isoTOP-ABPP ratio O14929_C101 ([8]; 100 μM in situ 231): 0.8

Compound: O=C(CCl)NC(=O)NC12CC3CC(CC(C3)C1)C2 [compound 12]
isoTOP-ABPP ratio, cysteine Q8NDH3_C81 ([1]; 200 μM, insitu, 231): 20.0
isoTOP-ABPP ratio Q8N1F7_C522 [7]; 231: 20.0
isoTOP-ABPP ratio P27707_C9 ([6]; 200 μM, insitu, 231): 1.4
isoTOP-ABPP ratio O14929_C101 ([8]; 200 μM, insitu, 231): 20.0

Compound: O=C(CCl)NCCc1c[nH]c2ccccc12 [compound 13]
isoTOP-ABPP ratio Q8N1F7_C522 ([7]; ramos): 2.2
isoTOP-ABPP ratio Q14790_C360 ([3]; 200 μM, insitu, 231): 1.2
isoTOP-ABPP ratio P27707_C9 ([6]; 200 μM, insitu, 231): 1.0
isoTOP-ABPP ratio P27707_C9 ([6]; 200 μM, insitu, ramos): 1.3
isoTOP-ABPP ratio Q96F86_C413 ([4]; 200 μM, insitu, 231): 1.6
isoTOP-ABPP ratio Q96F86_C413 ([4]; 200 μM, insitu, ramos): 2.0
isoTOP-ABPP ratio O14929_C101 ([8]; 200 μM, insitu, 231): 0.9
isoTOP-ABPP ratio O14929_C101 ([8]; 200 μM, insitu, ramos): 1.2
